{
  "source": "paper PMC10298275",
  "about": "“Antiproliferative Activity and Impact on Human Gut Microbiota of New O-Alkyl Derivatives of Naringenin and Their Oximes” (International Journal of Molecular Sciences, 2023)",
  "key": {"[1]": {"tested_on": "Enterococcus faecalis ATCC 29212", "assay": "MBC assay", "type": "cell-based", "settings": "E. faecalis ATCC 29212", "protocol": "(§1) The minimum bactericidal concentration (MBC) was tested for all naringenin derivatives. First, 10 µL of medium was taken from the plate, on which the MIC was determined for the MIC value, the value below and the two values above. This volume was transferred to TSA or MC agar. After 18–24 h (depending on strain) incubation at 37 °C, colonies were counted. The concentration of test compounds at which no bacterial growth was observed was defined as the MBC value. Each experiment was repeated 3 times."}, "Escherichia coli K12 [2]": {"tested_on": "Escherichia coli K12", "assay": "MBC assay", "type": "cell-based", "settings": "E. coli K12", "protocol": "as §1"}, "[3]": {"tested_on": "Staphylococcus aureus ATCC 25923", "assay": "MBC assay", "type": "cell-based", "settings": "S. aureus ATCC 25923", "protocol": "as §1"}, "3T3-L1 cells": {"tested_on": "3T3-L1 cells", "assay": "SRB assay, cytotoxicity", "type": "cell-based, mouse", "settings": "3T3-L1, SRB, 24 h exposure, three independent repeats", "protocol": "(§2) The HT-29 cells (ATCC, Manassas, VA, USA) were cultured within α-MEM (IIET PAS, Wrocław, Poland) supplemented with 10% fetal bovine serum (Sigma, St. Louis, MO, USA), antimycotic (100 μg/mL penicillin, 100 μg/mL streptomycin and 0.25 μg/mL amphotericin) (Sigma) and 2 mM glutamine (Sigma). The 3T3-L1 cells (ATCC, Manassas, VA, USA) were cultivated using DMEM high-glucose medium (IIET PAS, Wrocław, Poland) supplemented as above. Both cell lines were cultured at 37 °C in an atmosphere of 5% CO2.\n(§3) The sulforhodamine B (SRB) assay was performed according to a previously published protocol. Briefly, 1 × 10^4 HT-29 or 5 × 10^3 3T3-L1 cells were seeded into 96-well plates. After attaching to the plate surface, the cells were incubated with 100, 75, 50, 25, 10 or 1 µg/mL of the investigated compounds for 24 h. After this time, proteins were precipitated with trichloroacetic acid and stained with SRB. The absorbance was measured at 560 nm using a GloMax Discover Microplate Reader (Promega, Madison, WI, USA)."}, "[4]": {"tested_on": "Enterococcus faecalis ATCC 29212", "assay": "MIC, microdilution method", "type": "cell-based", "settings": "E. faecalis ATCC 29212, MHB, 24 h, 37 °C, tested 512 to 1 µg/mL", "protocol": "(§4) Non-pathogenic reference strains representing the intestinal microbiome were used for the studies: Escherichia coli K12, Staphylococcus aureus ATCC 25923 and Enterococcus faecalis ATCC 29212. All strains were obtained from the collection of the Department of Microbiology at the Medical University of Wrocław.\n(§5) The strains were received from the museum (−80 °C) and grown in tryptic soy broth (TSB, OXOID, Basingstoke, UK) under continuous shaking conditions (MaxQTM6000 incubator shaker, Thermo Scientific, Waltham, MA, USA) at 125 rpm at 37 °C. Then, they were moved to the growth media, namely tryptic soy agar (TSA, OXOID, Basingstoke, UK) and MacConkey agar (MC, Millipore, Darmstadt, Germany) for S. aureus or E. faecalis and E. coli, respectively.\n(§6) A fresh 18–24 h culture was used for each study. For this purpose, a culture with a density of 1.5 × 10^8 CFU/mL in Mueller–Hinton broth (MHB, OXOID, Basingstoke, UK) was prepared and used for further microdilution studies.\n(§7) The antimicrobial activity of the O-alkyl derivatives of naringenin and their oximes was tested in vitro using the microdilution method, showing the minimum inhibitory concentration (MIC), in accordance with the recommendations of the European Antimicrobial Susceptibility Testing Committee EUCAST [44]. MICs were determined in 96-well microdilution plates. The tests were carried out in MHB medium. The O-alkyl derivatives of naringenin and their oximes were tested in the concentration range of 512 to 1 µg/mL in a geometric process in MHB medium. The final concentration of the test strains in each test well was 5 × 10^5 CFU/mL. MICs were read after 18 h (for E. coli and S. aureus) and 24 h (for E. faecalis) incubation at 37 °C.\n(§8) A strain growth control (tested strain in medium), background control for tested compounds (naringenin derivatives in MHB), medium control (only pure MHB) and compound solvent control (DMSO at test compound concentration, strain and MHB) were set for each experiment. Each test was set up with three independent experiments, each as three separate replicates.\n(§9) The […], OD600, was measured in a plate reader (ASYS UVM340, BIOCHROM Ltd., Cambridge, UK). The background control of the tested compounds and the clean medium were included in the absorbance results."}, "Escherichia coli K12 [5]": {"tested_on": "Escherichia coli K12", "assay": "MIC, microdilution method", "type": "cell-based", "settings": "E. coli K12, MHB, 18 h, 37 °C, tested 512 to 1 µg/mL", "protocol": "as §4, §5, §6, §7, §8, §9"}, "[6]": {"tested_on": "Staphylococcus aureus ATCC 25923", "assay": "MIC, microdilution method", "type": "cell-based", "settings": "S. aureus ATCC 25923, MHB, 18 h, 37 °C, tested 512 to 1 µg/mL", "protocol": "as §4, §5, §6, §7, §8, §9"}, "HT-29 cells [7]": {"tested_on": "HT-29 cells", "assay": "MTT assay, cell viability", "type": "cell-based, human", "settings": "HT-29, MTT, 24 h", "protocol": "as §2\nFirst, 1 × 10^4 HT-29 cells or 5 × 10^3 3T3-L1 cells were seeded into a 96-well plate and incubated for one night. Then, cells were treated with different concentrations of the investigated compounds within 24 h. Afterwards, the medium was replaced with a fresh medium containing 0.5 mg/mL of 3-(4,5-dimethylthiazol-2-yl)-2,5-diphenyl-2H-tetrazolium bromide (MTT, Sigma) and incubated for 2 h at 37 °C. After removing the medium, the formazan salts were dissolved in dimethyl sulfoxide (DMSO, Sigma), and the absorbance of the solution was measured at 560 nm using a plate reader."}, "HT-29 cells [8]": {"tested_on": "HT-29 cells", "design": "method as in earlier work", "settings": "ref 29 (Kocyigit et al.); cited from earlier work"}, "HT-29 cells [9]": {"tested_on": "HT-29 cells", "assay": "RealTime-Glo Annexin V Apoptosis and Necrosis Assay", "type": "cell-based, human", "protocol": "The process of apoptosis was determined using the RealTime-Glo Annexin V Apoptosis and Necrosis Assay (Promega) according to the manufacturer’s protocol. Briefly, 1 × 10^4 HT-29 cells were seeded into a single well of a 96-well plate. After overnight incubation, the cells were treated with 10, 25, 50 and 100 µg/mL of the investigated compounds and detection reagent for 24 h. As a negative control, untreated cells were used. The luminescence, fluorescence and OD525 signals were detected at each hour of the first 12 h of incubation. The end measurement was performed at the 24th hour of the experiment. All samples were prepared in triplicate, and then their means were calculated."}, "HT-29 cells [10]": {"tested_on": "HT-29 cells", "assay": "SRB assay, cytotoxicity", "type": "cell-based, human", "settings": "HT-29, SRB, 24 h exposure, three independent repeats", "protocol": "as §2, §3"}, "SRB assay, cytotoxicity [11]": {"assay": "SRB assay, cytotoxicity", "type": "cell-based, mouse", "settings": "mouse, 3T3-L1 cells; 3T3-L1, SRB, 24 h exposure, three independent repeats; read-out: Cytotoxicity (IC50 ± SD)", "protocol": "as §2, §3"}, "SRB assay, cytotoxicity [12]": {"assay": "SRB assay, cytotoxicity", "type": "cell-based, human", "settings": "human, HT-29 cells; HT-29, SRB, 24 h exposure, three independent repeats; read-out: Cytotoxicity (IC50 ± SD)", "protocol": "as §2, §3"}, "[13]": {"tested_on": "caspase 3/7 in HT-29 cells", "assay": "Caspase-Glo 3/7 Assay", "type": "cell-based, human", "settings": "HT-29, 50 µg/mL", "protocol": "The activity of two effector caspases 3 and 7 was analyzed using the Caspase-Glo 3/7 Assay (Promega) according to the recommendations of the manufacturer. The cells were seeded at a density of 1 × 10^4 per well for the test on a 96-well plate. Then, cells were incubated with A2, B2, A9, B9 and NG at a concentration of 50 µg/mL for 48 h. Half an hour before each measurement of caspase activity, an equal volume of Caspase-Glo 3/7 substrate solution was added to cells. The luminescence signals were detected using a GloMax Discover Microplate Reader at the 6th, 12th, 24th and 48th hours of the experiment. The reactions for each sample were repeated in triplicate and presented as the mean value."}},
  "note": "“Also recorded” adds a separate entry of the source. Read-outs that look alike come from different tables or passages of the source.",
  "data": [
    {"compound": "O/N=C1\\CC(c2ccc(O)cc2)Oc2cc(O)cc(O)c21", "note": "(centres unmarked) [NGOX, naringenin oxime, reference compound]", "values": [
      {"measurement": "MBC", "setting": "[1]", "result": "> 512", "unit": "µg/mL"},
      {"measurement": "MBC", "setting": "Escherichia coli K12 [2]", "result": "> 512", "unit": "µg/mL"},
      {"measurement": "MBC", "setting": "[3]", "result": "> 512", "unit": "µg/mL"},
      {"measurement": "Cytotoxicity (IC50 ± SD)", "setting": "3T3-L1 cells", "result": "29.18 ± 2.00", "unit": "µg/mL"},
      {"measurement": "MIC", "setting": "[4]", "result": 512, "unit": "µg/mL"},
      {"measurement": "MIC", "setting": "Escherichia coli K12 [5]", "result": 512, "unit": "µg/mL"},
      {"measurement": "MIC", "setting": "[6]", "result": "> 512", "unit": "µg/mL"},
      {"measurement": "reduction in cell viability", "setting": "HT-29 cells [7]; 100 µg/mL", "result": "more than 50%"},
      {"measurement": "IC50", "setting": "HT-29 cells [8]", "result": 175, "unit": "µg/mL"},
      {"measurement": "annexin V luminescence and necrosis fluorescence signals versus untreated cells", "setting": "HT-29 cells [9]; HT-29, during 12 h incubation, applied concentrations 10-100 µg/mL", "result": "both signals were similar to those for untreated cells"},
      {"measurement": "Cytotoxicity (IC50 ± SD)", "setting": "HT-29 cells [10]", "result": ">100", "unit": "µg/mL"}
    ]},
    {"compound": "CCCCCCCCCCCOc1cc(O)c2c(c1)O[C@H](c1ccc(O)cc1)CC2=NO", "note": "[B9, 7-O-Undecylnaringenin oxime]", "values": [
      {"measurement": "MBC", "setting": "[1]; Enterococcus faecalis, ATCC29212, read-out: MBC", "result": "> 512", "unit": "µg/mL"},
      {"measurement": "MBC", "setting": "Escherichia coli K12 [2]; Escherichia coli, read-out: MBC", "result": "> 512", "unit": "µg/mL"},
      {"measurement": "MBC", "setting": "[3]; Staphylococcus aureus, ATCC25923, read-out: MBC", "result": "> 512", "unit": "µg/mL"},
      {"measurement": "IC50 at 24 h", "setting": "SRB assay, cytotoxicity [11]", "result": "6.74 ± 0.84", "unit": "µg/mL"},
      {"measurement": "melting point", "result": "171 to 173", "unit": "°C"},
      {"measurement": "MIC", "setting": "[4]; Enterococcus faecalis, ATCC29212, read-out: MIC", "result": 256, "unit": "µg/mL"},
      {"measurement": "MIC", "setting": "Escherichia coli K12 [5]; Escherichia coli, read-out: MIC", "result": "> 512", "unit": "µg/mL"},
      {"measurement": "MIC", "setting": "[6]", "result": ">512 (>512) µg/mL"},
      {"measurement": "MIC", "setting": "[6]; Staphylococcus aureus, ATCC25923, read-out: MIC", "result": "> 512", "unit": "µg/mL"},
      {"measurement": "reduction in cell viability", "setting": "HT-29 cells [7]; 10 µg/mL dose", "result": "more than 50%"},
      {"measurement": "onset of loss of membrane integrity (fluorescence signal), time shift with respect to luminescence", "setting": "HT-29 cells [9]; HT-29, 50 µg/mL", "result": "more than 5 h"},
      {"measurement": "phosphatidylserine exposure (luminescent signal) on the outer side of the cell membrane", "setting": "HT-29 cells [9]; HT-29, 50 µg/mL", "result": "significantly increased; also recorded: increased the level of phosphatidylserine"},
      {"measurement": "IC50 at 24 h", "setting": "SRB assay, cytotoxicity [12]", "result": "11.4 ± 1.17", "unit": "µg/mL"},
      {"measurement": "time of caspase 3/7 activation", "setting": "[13]", "result": "≤ 12", "unit": "h"},
      {"measurement": "caspase 3/7 activation", "setting": "[13]; measured at 6, 12, 24 and 48 h", "result": "rapid activation of caspase 3/7"}
    ]}
  ]
}
